Source: patent publication US8835631B2, “Therapeutic agent for cerebral infarction” (Mitsubishi Tanabe Pharma Corporation, priority 2007, dated 2014)

Experiments:
IL-1β = test: Intracerebral IL-1β production in rat middle cerebral artery occlusion-reperfusion model; assay type: in vivo, male Wistar rats; conditions: 10 mg/kg intravenously 30 min after occlusion; brain isolated 12 hr after occlusion; ELISA; FIG. 2
Description: (§1) The middle cerebral artery of male Wistar rats (Japan Laboratory animals Inc.) was obstructed with suture (silicon-coated nylon thread), and test compound A (10 mg/kg) dissolved in saline was intravenously administered in 30 min after occlusion, and middle cerebral artery was reperfused in 60 min after administration. In only the rats used for TNF-α measurement, test compound A was administered orally. The brain was isolated at 12 hr after the occlusion (see Koizumi, J. et al., Jpn. J. Stroke, 8, 1-8, 1986). The brain tissue was homogenized, the centrifuged supernatant was collected and cytokine and chemokine were measured by ELISA. Intracerebral TNF-α, IL-1β and IL-6 were measured using an Immunoassay Kit (BIOSOURCE) according to the manufactures' protocol. MCP-1 was measured using an MCP-1 Instant ELISA (Bener MedSystems) according to the manufactures' protocol.

IL-6 [1] = test: Intracerebral IL-6 production in rat middle cerebral artery occlusion-reperfusion model; assay type: in vivo, male Wistar rats; conditions: 10 mg/kg intravenously 30 min after occlusion; brain isolated 12 hr after occlusion; ELISA; FIG. 3
Description: as §1

MCP-1 [2] = test: Intracerebral MCP-1 production in rat middle cerebral artery occlusion-reperfusion model; assay type: in vivo, male Wistar rats; conditions: 10 mg/kg intravenously 30 min after occlusion; brain isolated 12 hr after occlusion; ELISA; FIG. 4
Description: as §1

[3] = tested on: monkey middle cerebral artery permanent occlusion model; test: Brain injury volume and neurological deficit in monkey middle cerebral artery permanent occlusion model; assay type: in vivo, Macaca fascicularis; conditions: for spread of the cerebral infarction region (brain injury volume, MRI FLAIR): 5 mg/kg orally twice a day, FIG. 5
Description: In monkey middle cerebral artery permanent occlusion model, the brain injury volume was measured by MR^1 (FLAIR method) one day and seven days after occlusion. Test compound A (5 mg/kg) dissolved in 0.5% tragacanth was repeatedly administered orally twice a day for 14 days. As for neurological score, the neurological function was evaluated by scoring the consciousness, perception, motility and muscular commands.
The middle cerebral artery permanent occlusion was conducted according to the method of Furuichi et al. (Furuichi, Y et al., J. Cereb. Blood Flow Metab., 23, 1183-1194, 2003), which is specifically as follows. Macaca fascicularis fasted in advance for 12 hr or longer was anesthetized by intramuscular administration of ketamine hydrochloride (10 mg/kg), anesthetized by intravenous administration of pentobarbital sodium (25 mg/kg) and fixed on an operating table. About 5 mm holes were made near foramen ovale and orbital fissure with a dental drill, dura mater and arachnoid mater were incised, and the middle cerebral artery trunk near the internal carotid artery bifurcation area was exposed. The middle cerebral artery trunk near the internal carotid artery bifurcation area was obstructed by electric coagulation to form cerebral infarction.
Test compound A was orally administered within 1 hr and 6 hr after middle cerebral artery occlusion and within 30 min after feeding in the morning and evening (twice a day) from the next day for 14 days.

IL-10 = IL-10 production in LPS-administered mouse; assay type: in vivo, male BALB/c mouse
Description: (§2) LPS (lipopolysaccharide, derived from E. coli 0111:B4, Sigma, 500 μg/kg) was intraperitoneally administered to male BALB/c mouse (Charles River Laboratories Japan). After 90 min after LPS administration, the blood was taken under anesthesia, and centrifuged to collect plasma. TNF-α was measured using an Immunoassay Kit (R&D Systems) and IL-10, MCP-1 and IL-6 were measured using an Immunoassay Kit (BIOSOURCE). Test compound A, the compound synthesized in Example 3 (test compound B) and the compound synthesized in Example 7 (test compound C) were dissolved in saline, and the mixture was orally administered at 10 mg/kg 30 min before LPS administration. As shown in the Tables, the effect of each test compound on respective […] cytokines was calculated as the ratio of each cytokine concentration in the blood of the group administered with each test compound to each cytokine concentration in the blood of the group free of administration of each test compound.

IL-6 [4] = test: IL-6 production in LPS-administered mouse; assay type: in vivo, male BALB/c mouse; conditions: for IL-6 production (%): 10 mg/kg orally 30 min before LPS 500 μg/kg i.p., plasma 90 min after LPS, ratio to group without test compound
Description: as §2

MCP-1 [5] = test: MCP-1 production in LPS-administered mouse; assay type: in vivo, male BALB/c mouse; conditions: for MCP-1 production (%): 10 mg/kg orally 30 min before LPS 500 μg/kg i.p., plasma 90 min after LPS, ratio to group without test compound
Description: as §2

[6] = tested on: rat middle cerebral artery occlusion-reperfusion model; test: Cerebral infarction volume in rat middle cerebral artery occlusion-reperfusion model; assay type: in vivo, male Wistar rats; conditions: 10 mg/kg intravenously 30 min after occlusion, reperfusion 90 min after occlusion, brain isolated 24 hr later, TTC stain; FIG. 7
Description: The middle cerebral artery of male Wistar rats (Japan Laboratory Animals Inc.) was obstructed with suture (silicon-coated nylon thread), and saline (Vehicle, n=7), test compound A (10 mg/kg, n=6) dissolved in saline, test compound B ([…], n=7) dissolved in saline, and test compound C (10 mg/kg, n=7) dissolved in saline were each intravenously administered in 30 min after occlusion and the artery was reperfused in 90 min after occlusion. The brain was isolated 24 hr later. A 2 mm brain strip was prepared, and the strip was stained with PBS (pH 7.4, 37° C.) containing 1% 2,3,5-triphenyltetrazolium chloride (TTC, Wako Pure Chemical Industries, Ltd.). The cerebral infarction area was measured by image analysis and the cerebral infarction volume was calculated.

[7] = Evaluation of intracerebral transitivity in rat; assay type: in vivo, SD(IGS) rats; conditions: for Kp value (ratio of plasma concentration and intracerebral concentration): 30 mg/kg orally
Description: The test compound A dissolved in 0.5% aqueous HPMC solution was orally administered at 30 mg/kg, and test compound B and test compound C dissolved in 0.5% aqueous HPMC solution were each orally administered at 3 mg/kg to SD(IGS) rats (Charles River Laboratories Japan). At 1 hr and 4 hr after the administration of the test compound, blood samples were collected, and the brain (cerebral•cerebellum) was isolated. The plasma concentration and intracerebral concentration of each test compound were measured, and the ratio (Kp value) thereof was calculated, based on which the intracerebral transitivity was evaluated.

[8] = 10 mg/kg orally 30 min before LPS

CC(=O)NC1(c2ccc(CN3CCN(c4ncccn4)CC3)cc2)CC1.Cl [test compound A, N-(1-(4-((4-(pyrimidin-2-yl)piperazin-1-yl)methyl)phenyl)cyclopropyl)acetamide•hydrochloride]
intracerebral IL-1β concentration increased by transient cerebral ischemia (IL-1β): suppressed | intracerebral IL-6 concentration increased by transient cerebral ischemia (IL-6 [1]): suppressed | intracerebral MCP-1 concentration increased by transient cerebral ischemia (MCP-1 [2]): suppressed | neurological deficit (neurological function score) ([3]; 5 mg/kg orally twice a day for 14 days, FIG. 6): neurological deficit-ameliorating effect | spread of the cerebral infarction region (brain injury volume, MRI FLAIR) ([3]; 1 day after occlusion): suppressive action | spread of the cerebral infarction region (brain injury volume, MRI FLAIR) ([3]; 7 days after occlusion): suppressive action | IL-10 in LPS model mouse (in words) (IL-10; [8]): increased | IL-10 production (%) (IL-10; Table 1, 10 mg/kg orally 30 min before LPS 500 μg/kg i.p., plasma 90 min after LPS, ratio to group without test compound): 397.1% | IL-6 production in LPS model mouse (in words) (IL-6 [4]; [8]): suppressed | IL-6 production (%) (IL-6 [4]; Table 2): 74.4% | IL-6 production (%) (IL-6 [4]; Table 3): 78.4% | MCP-1 production in LPS model mouse (in words) (MCP-1 [5]; [8]): suppressed | MCP-1 production (%) (MCP-1 [5]; Table 2): 61.7% | MCP-1 production (%) (MCP-1 [5]; Table 3): 72.2% | suppression of cerebral infarction volume [6]: 42.5% | Kp value (ratio of plasma concentration and intracerebral concentration) ([7]; 1 hr after administration): 0.5 | Kp value (ratio of plasma concentration and intracerebral concentration) ([7]; 4 hr after administration): 0.5 | intracerebral transitivity (in words) ([7]; orally, test compound A 30 mg/kg, test compounds B and C 3 mg/kg): intracerebrally transferred
